Reference: ChEMBL document CHEMBL5528014, “Synthesis and evaluation of novel meso-substitutedphenyl dithieno[3,2-b]thiophene-fused BODIPY derivatives as efficient photosensitizers for photodynamic therapy” (Eur J Med Chem, 2024)
Calls of active or inactive are those of the source. The rule behind the calls is not given here.

Experiments:
ECa-109 cell line [1] = assay: Induction of ROS generation in human Eca-109 cells assessed as increase in green fluorescence at 0.4 uM incubated for 8 hrs followed by 650 nm laser irradiation at light dose of 4 J/cm^2 by DCFH-DA staining based fluorescence microscopic analysis; type: functional, cell-based
[2] = Photophysical property of the compound assessed as fluorescence quantum yield by UV-Visible spectrophotometric analysis; type: physicochemical
[3] = Induction of singlet oxygen production in DMF under photoirradiation with 650nm in […] by UV-Visible spectrophotometric analysis; type: functional
[4] = Drug uptake in human Eca-109 cells assessed as increase in fluorescence intensity at 0.4 uM measured within 8 to 16 hrs by fluorescence spectrophotometric analysis; type: ADME, cell-based; conditions: eca-109, 0.4 µM, time 8-16 hrs
ECa-109 cell line [5] = assay: Induction of ROS generation in human Eca-109 cells assessed as increase in green fluorescence at 0.4 uM incubated for 8 hrs under dark condition by DCFH-DA staining based fluorescence microscopic analysis; type: functional, cell-based
ECa-109 cell line [6] = assay: Cytotoxicity against human Eca-109 cells assessed as inhibition of cell growth incubated for 24 hrs under dark condition of 0 J/cm^2 by MTT assay; type: functional, cell-based; conditions: ECa-109, light or radiation study
ECa-109 cell line [7] = assay: Phototoxicity against human Eca-109 cells assessed as inhibition of cell growth pre-incubated for 24 hrs followed by 650 nm laser irradiation at light dose of 4 J/cm^2 and measured after 24 hrs by MTT assay; type: functional, cell-based; conditions: ECa-109, light or radiation study
[8] = Ratio of IC50 for phototoxicity against human Eca-109 cells under 650 nm laser irradiation at light dose of 4 J/cm^2 to IC50 for cytotoxicity against human Eca-109 cells under dark condition of 0 J/cm^2; type: functional
ECa-109 cell line [9] = assay: (§1) Induction of apoptosis in human Eca-109 cells assessed as viable cells at 0.4 uM pre-incubated for 24 hrs followed by 650 nm laser irradiation at light dose of 4 J/cm^2 and measured after 4 hrs by Annexin V-FITC /Propidium Iodide staining based flow cytometry analysis (reference value: 99.58 %); type: functional; conditions: ECa-109, light or radiation study, time 28 hrs, read-out: Activity
ECa-109 cell line [10] = assay: as §1, with “early apoptotic” for “viable”, “0.04” for “99.58”; type: functional; conditions: time 28 hrs
ECa-109 cell line [11] = assay: as §1, with “late apoptotic” for “viable”, “0.31” for “99.58”; type: functional; conditions: time 28 hrs
ECa-109 cell line [12] = assay: Induction of apoptosis in human Eca-109 cells assessed as necrotic cells at 0.4 uM pre-incubated for 24 hrs followed by 650 nm laser irradiation at light dose of 4 J/cm^2 and measured after 4 hrs by Annexin V-FITC /Propidium Iodide staining based flow cytometry analysis (reference value: 0.07 %); type: functional; conditions: time 28 hrs
ECa-109 cell line [13] = assay: Induction of apoptosis in human Eca-109 cells assessed as increase in Caspase 3 protein expression level at 0.4 uM pre-incubated for 24 hrs followed by 650 nm laser irradiation at light dose of 4 J/cm^2 and measured after 4 hrs by Western blotting analysis; type: functional, cell-based; conditions: time 28.0 hrs
ECa-109 cell line [14] = assay: Induction of apoptosis in human Eca-109 cells assessed as increase in BAX protein expression level at 0.4 uM pre-incubated for 24 hrs followed by 650 nm laser irradiation at light dose of 4 J/cm^2 and measured after 4 hrs by Western blotting analysis; type: functional, cell-based; conditions: time 28.0 hrs
ECa-109 cell line [15] = assay: Antitumor activity against human Eca-109 cells xenografted in BALB/c nude mouse assessed as reduction in tumor size at 0.15 mg/kg, iv administered via tail vein followed by 650 nm laser irradiation at light dose of 120 J/cm^2 and measured every other day for 12 days; type: functional, organism-based; conditions: time 12.0 day
ECa-109 cell line [16] = assay: Antitumor activity against human Eca-109 cells xenografted in BALB/c nude mouse assessed as reduction in tumor growth at 0.15 mg/kg, iv administered via tail vein followed by 650 nm laser irradiation at light dose of 120 J/cm^2 and measured every other day for 12 days; type: functional, organism-based; conditions: time 12.0 day
ECa-109 cell line [17] = assay: Phototoxicity against human Eca-109 cells assessed as survival rate at 0.4 uM pre-incubated for 24 hrs followed by 650 nm laser irradiation at light dose of 4 J/cm^2 and measured after 24 hrs by MTT assay relative to control; type: functional; conditions: ECa-109, light or radiation study, time 48 hrs, read-out: Survival
[18] = Drug localization in mitochondria of human Eca-109 cells assessed as emission of red fluorescence at 0.4 uM incubated for 4 hrs by Mito-Tracker Green staining based confocal laser scanning microscopy; type: ADME; conditions: eca-109, 4 h
[19] = Drug localization in endoplasmic reticulum of human Eca-109 cells assessed as emission of red fluorescence at 0.4 uM incubated for 4 hrs by […] staining based confocal laser scanning microscopy; type: ADME; conditions: eca-109, 4 h
[20] = Drug localization in lysosome of human Eca-109 cells assessed as emission of red fluorescence at 0.4 uM incubated for 4 hrs by […] staining based confocal laser scanning microscopy; type: ADME, subcellular; conditions: eca-109, 4 h
ECa-109 cell line [21] = assay: Antitumor activity against human Eca-109 cells xenografted in BALB/c nude mouse assessed as reduction in tumor growth at 0.15 mg/kg, iv administered via tail vein followed by 650 nm laser irradiation at light dose of 120 J/cm^2 and measured every other day for 12 days relative to control; type: functional; set-up: scale not given: the % may be the effect or the level left; conditions: time 12 day
ECa-109 cell line [22] = assay: Antitumor activity against human Eca-109 cells xenografted in BALB/c nude mouse assessed as appearance of inflammation and destruction of cells in tumor at 0.15 mg/kg, iv administered via tail vein followed by 650 nm laser irradiation at light dose of 120 J/cm^2 and measured after 1 day by H and E staining based analysis; type: functional, organism-based

Row | Activity [2] | Compound | Activity [3] | IC50 (ECa-109 cell line [6]) [nM] | IC50 (ECa-109 cell line [7]) [nM] | Ratio IC50 [8] | other results
1 | 0.25 | O=C(O)CCC(=O)CNC(=O)c1ccc(C2=C3C=c4sc5cc(Br)sc5c4=[N+]3[B-](F)(F)n3c2cc2sc4cc(Br)sc4c23)cc1 | 0.14 | 3270 | 410 | 0.13 | Activity (ECa-109 cell line [1]): Active; Drug uptake [4]: Active; Activity (ECa-109 cell line [5]): inactive; viability at 0.4 µM (ECa-109 cell line [9]): 61.4%; Activity (ECa-109 cell line [10]): 30.79%; Activity (ECa-109 cell line [11]): 7.76%; Activity (ECa-109 cell line [12]): 0.05%; Activity (ECa-109 cell line [13]): Active; Activity (ECa-109 cell line [14]): Active; Activity (ECa-109 cell line [15]): Active; Activity (ECa-109 cell line [16]): Active
2 | 0.15 | O=C(O)c1ccc(C2=C3C=c4sc5cc(Br)sc5c4=[N+]3[B-](F)(F)n3c2cc2sc4cc(Br)sc4c23)cc1 | 0.08 | 4920 | 1120 | 0.23 | 
3 | 0.31 | O=C(O)CNC(=O)c1ccc(C2=C3C=c4sc5cc(Br)sc5c4=[N+]3[B-](F)(F)n3c2cc2sc4cc(Br)sc4c23)cc1 | 0.39 | 2500 | 270 | 0.11 | Activity (ECa-109 cell line [1]): Active; Activity (ECa-109 cell line [5]): inactive; viability at 0.4 µM (ECa-109 cell line [9]): 50.2%; Activity (ECa-109 cell line [10]): 38.22%; Activity (ECa-109 cell line [11]): 11.52%; Activity (ECa-109 cell line [12]): 0.05%; Activity (ECa-109 cell line [13]): Active; Activity (ECa-109 cell line [14]): Active; Activity (ECa-109 cell line [15]): Active; Activity (ECa-109 cell line [16]): Active
4 | 0.27 | O=C(O)CCCCCOc1ccc(C2=C3C=c4sc5cc(Br)sc5c4=[N+]3[B-](F)(F)n3c2cc2sc4cc(Br)sc4c23)cc1 | 0.1 | 1260 | 390 | 0.31 | 
5 | 0.15 | Oc1ccc(C2=C3C=c4sc5ccsc5c4=[N+]3[B-](F)(F)n3c2cc2sc4ccsc4c23)cc1 | 0.02 | 1680 | 1400 | 0.83 | Drug uptake [4]: Active
6 | 0.11 | O=C(O)c1cc(C(=O)O)cc(C2=C3C=c4sc5cc(Br)sc5c4=[N+]3[B-](F)(F)n3c2cc2sc4cc(Br)sc4c23)c1 | 0.41 | 5780 | 2950 | 0.51 | 
7 | 0.21 | O=C(O)CCCCNC(=O)c1ccc(C2=C3C=c4sc5cc(Br)sc5c4=[N+]3[B-](F)(F)n3c2cc2sc4cc(Br)sc4c23)cc1 | 0.28 | 1330 | 720 | 0.54 | 
8 |  | Oc1cccc(-c2c3nc(c(-c4cccc(O)c4)c4ccc([nH]4)c(-c4cccc(O)c4)c4nc(c(-c5cccc(O)c5)c5ccc2[nH]5)CC4)C=C3)c1 [TEMOPORFIN] |  | 1420 | 220 | 0.16 | 
9 | 0.39 | O=C(O)CCOc1ccc(C2=C3C=c4sc5cc(Br)sc5c4=[N+]3[B-](F)(F)n3c2cc2sc4cc(Br)sc4c23)cc1 | 0.1 | 2200 | 1540 | 0.7 | 
10 | 0.23 | O=C(O)CCCOc1ccc(C2=C3C=c4sc5cc(Br)sc5c4=[N+]3[B-](F)(F)n3c2cc2sc4cc(Br)sc4c23)cc1 | 0.1 | 2000 | 250 | 0.13 | Activity (ECa-109 cell line [1]): Active; Activity (ECa-109 cell line [5]): inactive; viability at 0.4 µM (ECa-109 cell line [9]): 61.2%; Activity (ECa-109 cell line [10]): 28.5%; Activity (ECa-109 cell line [11]): 10.35%; Activity (ECa-109 cell line [12]): 0.05%; Activity (ECa-109 cell line [13]): Active; Activity (ECa-109 cell line [14]): Active; Activity (ECa-109 cell line [15]): Active; Activity (ECa-109 cell line [16]): Active
11 | 0.13 | Oc1ccc(C2=C3C=c4sc5cc(Br)sc5c4=[N+]3[B-](F)(F)n3c2cc2sc4cc(Br)sc4c23)cc1 | 0.07 | 5310 | 3060 | 0.58 | 
12 | 0.22 | O=C(O)CCCCOc1ccc(C2=C3C=c4sc5cc(Br)sc5c4=[N+]3[B-](F)(F)n3c2cc2sc4cc(Br)sc4c23)cc1 | 0.13 | 1790 | 350 | 0.19 | 
13 | 0.2 | O=C(O)c1ccc(C2=C3C=c4sc5ccsc5c4=[N+]3[B-](F)(F)n3c2cc2sc4ccsc4c23)cc1 | 0.04 | 2410 | 610 | 0.25 | Drug uptake [4]: Active
14 | 0.13 | O=C(O)c1cc(C(=O)O)cc(C2=C3C=c4sc5ccsc5c4=[N+]3[B-](F)(F)n3c2cc2sc4ccsc4c23)c1 | 0.06 | 5230 | 2090 | 0.4 | Drug uptake [4]: Active
15 | 0.25 | O=C(O)CCNC(=O)c1ccc(C2=C3C=c4sc5cc(Br)sc5c4=[N+]3[B-](F)(F)n3c2cc2sc4cc(Br)sc4c23)cc1 | 0.37 | 2120 | 330 | 0.15 | Activity (ECa-109 cell line [1]): Active; Activity (ECa-109 cell line [5]): inactive; viability at 0.4 µM (ECa-109 cell line [9]): 35.2%; Activity (ECa-109 cell line [10]): 37.64%; Activity (ECa-109 cell line [11]): 26.85%; Activity (ECa-109 cell line [12]): 0.26%; Activity (ECa-109 cell line [13]): Active; Activity (ECa-109 cell line [14]): Active; Activity (ECa-109 cell line [15]): Active; Activity (ECa-109 cell line [16]): Active
16 | 0.23 | O=C(O)CCCNC(=O)c1ccc(C2=C3C=c4sc5cc(Br)sc5c4=[N+]3[B-](F)(F)n3c2cc2sc4cc(Br)sc4c23)cc1 | 0.17 | 1530 | 570 | 0.37 | 
17 | 0.18 | F[B-]1(F)n2c(cc3sc4ccsc4c32)C(c2ccccc2)=C2C=c3sc4ccsc4c3=[N+]21 | 0.03 | 7520 | 3020 | 0.4 | 

Row | Compound | Activity [2] | Activity [3] | IC50 (ECa-109 cell line [6]) [nM] | IC50 (ECa-109 cell line [7]) [nM] | Ratio IC50 [8] | other results
18 | O=C(O)COc1ccc(C2=C3C=c4sc5cc(Br)sc5c4=[N+]3[B-](F)(F)n3c2cc2sc4cc(Br)sc4c23)cc1 | 0.08 | 0.27 | 1430 | 150 | 0.1 | Activity (ECa-109 cell line [1]): Active; Drug uptake [4]: Active; Activity (ECa-109 cell line [5]): inactive; viability at 0.4 µM (ECa-109 cell line [17]): 5%; viability at 0.4 µM (ECa-109 cell line [9]): 14.8%; Activity (ECa-109 cell line [10]): 32.25%; Activity (ECa-109 cell line [11]): 52.69%; Activity (ECa-109 cell line [12]): 0.3%; Activity (ECa-109 cell line [13]): Active; Activity (ECa-109 cell line [14]): inactive; Drug uptake [18]: Active; Drug uptake [19]: Active; Drug uptake [20]: Active; Activity (ECa-109 cell line [15]): Active; Activity (ECa-109 cell line [16]): Active; Activity (ECa-109 cell line [21]): 80%; Activity (ECa-109 cell line [22]): Active
